Measured values reported in patent publication US20240408071A1, “NOVEL COMBINATION OF SEROTONIN RECEPTOR (5-HTR2B) ANTAGONIST AND AN IMMUNOMODULATOR AND CHEMOTHERAPEUTIC DRUGS FOR INHIBITION OF CANCER” (NATIONAL CENTRE FOR CELL SCIENCE, priority 2021, published 2024).

Experiments:
[1] = tested on: MC38 colon cancer cells; assay: MC38 colon tumor growth (tumor volume) in C57BL/6 mice; format: in vivo; conditions: sertraline hydrochloride 15 mg/kg/week (FIG. 7C)
Description: Tumor volumes were measured and plotted. (B) MC38 colon cancer cells were injected subcutaneously into the right flank of C57BL/6 mice. After seven days when tumors became palpable, one group was treated with 5-HTR7 antagonist SB-269970 (n=6 mice; 3 mg/kg/day) or left untreated (n=6 mice). Tumor volume was measured and plotted. (C) After seven days of the setting of tumor growth, one group was treated with a serotonin transporter blocker (SSRI) sertraline hydrochloride (n=6 mice; 15 mg/kg/week) or left untreated (n=6 mice). Tumor volume was measured and plotted. (D) C57BL/6 mice were given subcutaneously injected MC38 cells. After seven days of tumor growth, one group of mice was treated with different doses of 5-HTR2B antagonist SB-215505 (n=6). Tumor volume was measured and plotted. (E) C57BL/6 mice were given subcutaneously injected MC38 cells. After seven days of the tumor growth, one group of mice was treated with different doses of 5-HTR2B antagonist SB-215505 (n=6), one group treated with 5-HTR2B agonist BW-723C86 (n=6; 4 mg/kg/day). Tumor volume was measured and plotted. (F) MC38 cells were subcutaneously injected into C57BL/6 mice. After seven days when the tumor became palpable in mice, one group of mice was treated with FDA-approved 5-HTR2B antagonist cariprazine (Carispec; Sun pharma) via oral gavage (n=5 mice; dose 5 mg/kg body weight/day) or left untreated (n=5 mice). Tumor growth was measured and plotted. […] All the statistical analysis was performed using Student's ‘t’ test or two-way ANOVA using Sidak's multiple comparison test. *P<0.05; **P<0.01; ***P<0.00; ****P<0.0001 Error bar represents mean±standard error of means (SEM).

[2] = tested on: PD-L1; assay: Serum PD-L1 ELISA in MC38 tumor-bearing mice; format: in vivo, C57BL/6J mice; conditions: MC38-induced colon tumor-bearing mice, SSRI treatment
Description: FIG. 13 depicts 5-HTR2B signaling promotes PD-L1 expression on the MC38 cell line in vitro: (A-B) MC38 cells are treated with 5-HTR2B agonist (BW-723C86-50 μM), serotonin (100 μM), and 5-HTR2B antagonist (RS-127445-50 μM) for 72 hours, and the PD-L1 expression was checked by flow cytometry and the percentage of PD-L1^+ MC38 cells was plotted. (C-D) MFI of PD-L1 from the above experiment were plotted as histogram overlay (C) or as statistical data points (D). (E) Relative PD-L1 mRNA expression in MC38 cells following BW-723C86 and RS-127445 treatment for 48 hours. Here the values are shown as a fold change as compared to control MC38 cells. […] All the statistical analysis was performed using either Student's ‘t’ test or two-way ANOVA using Sidak's multiple comparison test. *P<0.05; **P<0.01; […]; ****P<0.0001 Error bar represents mean±standard error of means (SEM).
(§1) Universal competitive serotonin ELISA kit was purchased from Novus biological (Catalog #NBP2-68127), and ELISA was performed according to the manufacturer's protocol. Mouse PD-L1 DuoSet ELISA kit was procured from the R&D System (Catalog #DY1019-05), and the ELISA was performed according to the manufacturer's guidelines.
To understand it, investigations were done on whether 5-HTR2B signaling also affects the surface expression of molecules that alters inflammatory and cytotoxic immune cells. Among different molecules, PD-L1 is of particular interest as it is an immune checkpoint ligand that affects cytotoxic T-cell responses toward cancer. […] (FIG. 13F).

[3] = tested on: serotonin; assay: Serum serotonin level in MC38 colon tumor-bearing mice; format: in vivo; conditions: MC38-induced colon tumor-bearing mice, SSRI treatment
Description: This secretory variant of PD-L1 is responsible for most of the resistance to the anti-PD-L1 therapy in the tumor.
as §1

CN[C@H]1CC[C@@H](c2ccc(Cl)c(Cl)c2)c2ccccc21 [sertraline]
MC38 tumor growth [1]: promotes MC38 tumor growth | secretory PD-L1 variant level in the serum [2]: enhanced the secretory PD-L1 variant level in the serum | free serotonin level in the serum [3]: increased free serotonin level in the serum
